Test results published in US20170305922A1, “CARM1 INHIBITORS AND USES THEREOF” (Epizyme, Inc., priority 2014, published 2017).

Target: T1, Human CARM1 (PRMT4) (Homo sapiens, UniProt Q86X55)
T1 construct: Flag-CARM1-His was eluted with 200 ug/ml FLAG peptide in buffer A; made in house; host or cells: HEK 293F cells infected with recombinant baculovirus (pFastBacMam)
T1 sequence (Q86X55 1-585 isoform Q86X55-1): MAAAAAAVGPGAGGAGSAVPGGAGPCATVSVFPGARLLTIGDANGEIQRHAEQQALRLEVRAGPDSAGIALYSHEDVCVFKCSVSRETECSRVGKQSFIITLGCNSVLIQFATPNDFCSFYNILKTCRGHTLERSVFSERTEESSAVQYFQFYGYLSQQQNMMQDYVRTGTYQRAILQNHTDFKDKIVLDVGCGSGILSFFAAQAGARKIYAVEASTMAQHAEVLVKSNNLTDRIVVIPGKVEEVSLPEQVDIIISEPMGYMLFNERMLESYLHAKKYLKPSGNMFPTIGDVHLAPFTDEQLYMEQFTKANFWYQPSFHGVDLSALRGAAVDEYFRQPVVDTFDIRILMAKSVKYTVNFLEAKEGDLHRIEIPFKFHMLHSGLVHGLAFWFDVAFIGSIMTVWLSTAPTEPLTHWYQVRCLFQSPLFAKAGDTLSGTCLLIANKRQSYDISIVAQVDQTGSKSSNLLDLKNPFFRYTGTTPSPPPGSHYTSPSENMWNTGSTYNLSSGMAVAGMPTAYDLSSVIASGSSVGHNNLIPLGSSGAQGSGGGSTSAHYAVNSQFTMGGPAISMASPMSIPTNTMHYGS
Experiment: CARM1 enzyme assay on peptide substrates (3H-SAM Flashplate)
Settings: Biochemical assay; CARM1 0.25 nM, 3H-SAM 30 nM, peptide 250 nM; read-out: Biochem IC50

IC50 [nM]	SMILES
5.2	CNC[C@@H](O)COc1ccc(Cl)c(-c2nc(-c3c(C)noc3C)c(C)c(N3Cc4ccncc4C3C)n2)c1 (stereo partly drawn) [Example 124]
6.5	CNC[C@@H](O)COc1ccc(Cl)c(-c2nc(-c3c(C)noc3C)c(C)c(N3Cc4cnn(C5COC5)c4C3)n2)c1 [Example 125]
6.2	CNC[C@@H](O)COc1ccc(Cl)c(-c2nc(-c3c(C)noc3C)c(C)c(N3Cc4cn(C5COC5)nc4C3)n2)c1 [Example 126]
7.8	CNC[C@@H](O)COc1ccc(Cl)c(-c2nc(-c3c(C)noc3C)c(C)c(N3Cc4cnc(OCC(F)F)nc4C3)n2)c1 [Example 127]
16.3	CNC[C@@H](O)COc1ccc(Cl)c(-c2nc(-c3c(C)noc3C)c(C)c(N3CC4(CCC(OCCOC)CC4)C3)n2)c1 [Example 128]
7.7	CNC[C@@H](O)COc1ccc(Cl)c(-c2nc(-c3c(C)noc3C)c(C)c(N3Cc4cn(C)nc4C3)n2)c1 [Example 129]
5.9	CNC[C@@H](O)COc1ccc(Cl)c(-c2nc(-c3c(C)noc3C)c(C)c(N3C[C@H]4C[C@@H]3CN4C(=O)OC)n2)c1 [Example 130]
9	CNC[C@@H](O)COc1ccc(Cl)c(-c2nc(-c3c(C)noc3C)c(C)c(N3C[C@H]4C[C@@H]3CN4CC(F)F)n2)c1 [Example 131]
9.9	CNC[C@@H](O)COc1ccc(Cl)c(-c2nc(-c3c(C)noc3C)c(C)c(N3CC4(CC(OC(C)C)C4)C3)n2)c1 [Example 133]
8.5	CNC[C@@H](O)COc1ccc(Cl)c(-c2nc(-c3c(C)noc3C)c(C)c(N3CC4(CC(OCC(F)F)C4)C3)n2)c1 [Example 134]
4.6	CNC[C@@H](O)COc1ccc(Cl)c(-c2nc(-c3c(C)noc3C)c(C)c(N3Cc4cnn(C5CCOCC5)c4C3)n2)c1 [Example 135]
5.1	CNC[C@@H](O)COc1ccc(Cl)c(-c2nc(-c3c(C)noc3C)c(C)c(N3Cc4cn(C5CCOCC5)nc4C3)n2)c1 [Example 136]
8	CNC[C@@H](O)COc1ccc(Cl)c(-c2nc(-c3c(C)noc3C)c(C)c(N3C[C@@H]4C[C@H]3CN4CC(F)F)n2)c1 [Example 137]
5.2	CNC[C@@H](O)COc1ccc(Cl)c(-c2nc(-c3c(C)noc3C)c(C)c(-n3cc4c(n3)CN(C(=O)OC)C4)n2)c1 [Example 139]
4.2	CNC[C@@H](O)COc1ccc(Cl)c(-c2nc(-c3c(C)noc3C)c(C)c(N3CC4(CC(F)C4)C3)n2)c1 [Example 140]
3.7	CNC[C@@H](O)COc1ccc(Cl)c(-c2nc(-c3c(C)noc3C)c(C)c(N3CC4(CC(Cl)C4)C3)n2)c1 [Example 141]
3.6	CNC[C@@H](O)COc1ccc(Cl)c(-c2nc(-c3c(C)noc3C)c(C)c(N3Cc4cnc(C)cc4[C@@H]3C)n2)c1 [Example 142]
2.8	CNC[C@@H](O)COc1ccc(Cl)c(-c2nc(-c3c(C)noc3C)c(C)c(N3Cc4cnc(N5CC(F)(F)C5)nc4C3)n2)c1 [Example 143]
3.3	CNC[C@@H](O)COc1ccc(Cl)c(-c2nc(-c3c(C)noc3C)c(C)c(N3Cc4cnc(N5CCOCC5)nc4C3)n2)c1 [Example 144]
2	CNC[C@@H](O)COc1ccc(Cl)c(-c2nc(-c3c(C)noc3C)c(C)c(N3Cc4cnc(N5CC(F)C5)nc4C3)n2)c1 [Example 145]
2.7	CNC[C@@H](O)COc1ccc(Cl)c(-c2nc(-c3c(C)c(Cl)nn3C)c(C)c(N3Cc4cnc(N5CC(F)(F)C5)nc4C3)n2)c1 [Example 146]

Tested on: asymmetric di-methyl PABP1 in RKO cells
Experiment: RKO methylation assay: In Cell Western (ICW) for asymmetric di-methyl PABP1 (PABP1me2a)
Settings: Homo sapiens, RKO, 48 h, Cellular-based (PABP1me2a) ICW (In Cell Western) assay
Method in brief: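 In-cell western on compound-exposed RKO cells (48 hours): asymmetric di-methyl PABP1 detected by antibody at 800 nm, DNA content by DRAQ5 at 700 nm. Percent inhibition from signal ratios against DMSO (minimum) and 20 μM reference compound (maximum) wells; IC50 curves fitted from triplicates.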

IC50 [nM]	SMILES
175	CNC[C@@H](O)COc1ccc(Cl)c(-c2nc(-c3c(C)noc3C)c(C)c(N3Cc4ccncc4C3C)n2)c1 (stereo partly drawn) [Example 124]
150	CNC[C@@H](O)COc1ccc(Cl)c(-c2nc(-c3c(C)noc3C)c(C)c(N3Cc4cnn(C5COC5)c4C3)n2)c1 [Example 125]
157	CNC[C@@H](O)COc1ccc(Cl)c(-c2nc(-c3c(C)noc3C)c(C)c(N3Cc4cn(C5COC5)nc4C3)n2)c1 [Example 126]
32	CNC[C@@H](O)COc1ccc(Cl)c(-c2nc(-c3c(C)noc3C)c(C)c(N3Cc4cnc(OCC(F)F)nc4C3)n2)c1 [Example 127]
99	CNC[C@@H](O)COc1ccc(Cl)c(-c2nc(-c3c(C)noc3C)c(C)c(N3CC4(CCC(OCCOC)CC4)C3)n2)c1 [Example 128]
46	CNC[C@@H](O)COc1ccc(Cl)c(-c2nc(-c3c(C)noc3C)c(C)c(N3Cc4cn(C)nc4C3)n2)c1 [Example 129]
960	CNC[C@@H](O)COc1ccc(Cl)c(-c2nc(-c3c(C)noc3C)c(C)c(N3C[C@H]4C[C@@H]3CN4C(=O)OC)n2)c1 [Example 130]
612	CNC[C@@H](O)COc1ccc(Cl)c(-c2nc(-c3c(C)noc3C)c(C)c(N3C[C@H]4C[C@@H]3CN4CC(F)F)n2)c1 [Example 131]
42	CNC[C@@H](O)COc1ccc(Cl)c(-c2nc(-c3c(C)noc3C)c(C)c(N3CC4(CC(OC(C)C)C4)C3)n2)c1 [Example 133]
45	CNC[C@@H](O)COc1ccc(Cl)c(-c2nc(-c3c(C)noc3C)c(C)c(N3CC4(CC(OCC(F)F)C4)C3)n2)c1 [Example 134]
93	CNC[C@@H](O)COc1ccc(Cl)c(-c2nc(-c3c(C)noc3C)c(C)c(N3Cc4cnn(C5CCOCC5)c4C3)n2)c1 [Example 135]
172	CNC[C@@H](O)COc1ccc(Cl)c(-c2nc(-c3c(C)noc3C)c(C)c(N3Cc4cn(C5CCOCC5)nc4C3)n2)c1 [Example 136]
311	CNC[C@@H](O)COc1ccc(Cl)c(-c2nc(-c3c(C)noc3C)c(C)c(N3C[C@@H]4C[C@H]3CN4CC(F)F)n2)c1 [Example 137]
131	CNC[C@@H](O)COc1ccc(Cl)c(-c2nc(-c3c(C)noc3C)c(C)c(-n3cc4c(n3)CN(C(=O)OC)C4)n2)c1 [Example 139]
241	CNC[C@@H](O)COc1ccc(Cl)c(-c2nc(-c3c(C)noc3C)c(C)c(N3CC4(CC(F)C4)C3)n2)c1 [Example 140]
173	CNC[C@@H](O)COc1ccc(Cl)c(-c2nc(-c3c(C)noc3C)c(C)c(N3CC4(CC(Cl)C4)C3)n2)c1 [Example 141]
65	CNC[C@@H](O)COc1ccc(Cl)c(-c2nc(-c3c(C)noc3C)c(C)c(N3Cc4cnc(C)cc4[C@@H]3C)n2)c1 [Example 142]
15	CNC[C@@H](O)COc1ccc(Cl)c(-c2nc(-c3c(C)noc3C)c(C)c(N3Cc4cnc(N5CC(F)(F)C5)nc4C3)n2)c1 [Example 143]
22	CNC[C@@H](O)COc1ccc(Cl)c(-c2nc(-c3c(C)noc3C)c(C)c(N3Cc4cnc(N5CCOCC5)nc4C3)n2)c1 [Example 144]
15	CNC[C@@H](O)COc1ccc(Cl)c(-c2nc(-c3c(C)noc3C)c(C)c(N3Cc4cnc(N5CC(F)C5)nc4C3)n2)c1 [Example 145]
26	CNC[C@@H](O)COc1ccc(Cl)c(-c2nc(-c3c(C)c(Cl)nn3C)c(C)c(N3Cc4cnc(N5CC(F)(F)C5)nc4C3)n2)c1 [Example 146]
